One assay addresses T1, CDK1 (Homo sapiens, UniProt P06493).
T1 construct: purchased New England Biolabs, Beverly, Mass; 6020; host or cells: insect cells
Nature of the assay: CDK-1 kinase screening assay (33P-ATP FlashPlate). Type of assay: biochemical. To be noted: human CDK1 with cyclin B; 10 μM ATP; 1 hr at 30° C.

A further assay addresses T2, VEGF-R2 (Rattus norvegicus, UniProt O08775).
T2 construct: polyhistidine (N)
Nature of the assay: VEGF-R2 kinase screening assay (33P-ATP FlashPlate).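 Further: Read-out is ³³P incorporation from ³³P-γ-ATP into biotinylated peptide substrate captured on streptavidin FlashPlate, counted by scintillation, 1% DMSO final, inhibition scaled between per-plate maximum and minimum signals.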 To be noted: rat VEGF-R2 kinase domain; 10 μM ATP; 1 hr at 30° C. Type of assay: biochemical.

For another assay, the target named is T3, HER2 (Homo sapiens, UniProt P04626).
T3 construct: GST (Glutathione-S-Transferase) (N); HIS6 (N); thrombin cleavage site (N); purchased Proqinase, Freiburg, Germany
T3 sequence (P04626 679-1255): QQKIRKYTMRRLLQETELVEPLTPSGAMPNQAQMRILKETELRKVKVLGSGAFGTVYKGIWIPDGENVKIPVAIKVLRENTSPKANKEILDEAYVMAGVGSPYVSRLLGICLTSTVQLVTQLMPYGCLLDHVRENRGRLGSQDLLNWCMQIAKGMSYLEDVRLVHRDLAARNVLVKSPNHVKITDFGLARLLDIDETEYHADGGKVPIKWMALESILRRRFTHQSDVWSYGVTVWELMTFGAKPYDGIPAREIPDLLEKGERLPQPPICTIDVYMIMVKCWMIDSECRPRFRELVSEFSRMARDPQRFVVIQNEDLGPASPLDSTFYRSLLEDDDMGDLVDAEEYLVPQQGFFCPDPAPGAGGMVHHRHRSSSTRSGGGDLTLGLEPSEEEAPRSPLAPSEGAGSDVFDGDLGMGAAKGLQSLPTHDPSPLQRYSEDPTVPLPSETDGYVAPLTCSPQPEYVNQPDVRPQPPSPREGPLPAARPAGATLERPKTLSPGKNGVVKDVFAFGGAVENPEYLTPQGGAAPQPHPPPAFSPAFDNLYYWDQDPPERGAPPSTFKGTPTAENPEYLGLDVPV
Nature of the assay: HER2 kinase screening assay (33P-ATP FlashPlate).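 Further: Biotin-poly(GT) 4:1 peptide captured on streptavidin FlashPlate, 33P transfer from γ-ATP read by scintillation counting, lower incorporation means inhibition, 1% DMSO final, 100 µL reaction.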 Type of assay: biochemical. Conditions: GST-HIS6 HER-2 aa 679 to 1255; 10 μM ATP; 1 hr at 30° C.

Another assay concerns the target T4, Aurora-A (Mus musculus, UniProt P97477).
T4 construct: polyhistidine (N)
T4 sequence (P97477 1-395): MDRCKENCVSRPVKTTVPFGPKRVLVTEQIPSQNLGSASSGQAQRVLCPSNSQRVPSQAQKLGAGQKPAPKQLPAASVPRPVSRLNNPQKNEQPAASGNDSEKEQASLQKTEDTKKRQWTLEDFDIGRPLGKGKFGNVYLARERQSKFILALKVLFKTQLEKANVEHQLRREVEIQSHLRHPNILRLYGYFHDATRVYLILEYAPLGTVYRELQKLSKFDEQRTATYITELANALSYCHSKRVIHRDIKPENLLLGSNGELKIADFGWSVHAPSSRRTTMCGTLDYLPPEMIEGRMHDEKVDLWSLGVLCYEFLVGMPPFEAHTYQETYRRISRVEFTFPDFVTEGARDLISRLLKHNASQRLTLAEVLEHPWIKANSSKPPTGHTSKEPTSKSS
Briefly: Aurora-A kinase screening assay (33P-ATP FlashPlate).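 Further: His-tagged mouse Aurora-A phosphorylating a biotinylated peptide captured on streptavidin plates, read as 33P uptake by scintillation counting, 1% DMSO, inhibition scaled between per-plate maximum and minimum signals.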 Type of assay: biochemical. To be noted: 10 μM ATP, 1 hr at 30° C.

In a further assay the target is T5, RET (Homo sapiens, UniProt P07949).
T5 construct: polyhistidine (N)
T5 sequence (P07949 658-1114 limits assumed): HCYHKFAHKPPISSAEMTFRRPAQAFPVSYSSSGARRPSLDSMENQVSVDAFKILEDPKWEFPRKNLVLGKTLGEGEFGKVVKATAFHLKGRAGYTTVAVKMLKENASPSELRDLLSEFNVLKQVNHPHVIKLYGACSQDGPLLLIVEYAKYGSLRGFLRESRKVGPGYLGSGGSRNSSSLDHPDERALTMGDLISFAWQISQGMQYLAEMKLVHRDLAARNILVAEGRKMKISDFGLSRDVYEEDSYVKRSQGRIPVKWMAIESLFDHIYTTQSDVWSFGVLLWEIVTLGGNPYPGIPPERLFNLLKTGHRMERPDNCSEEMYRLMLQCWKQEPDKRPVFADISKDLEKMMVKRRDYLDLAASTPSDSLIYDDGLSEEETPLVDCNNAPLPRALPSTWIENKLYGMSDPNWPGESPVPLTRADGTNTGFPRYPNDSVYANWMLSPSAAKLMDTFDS
Nature of the assay: RET kinase screening assay (33P-ATP FlashPlate).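 Further: biotinylated peptide substrate captured on streptavidin FlashPlate, 33P phosphate transfer read by scintillation counting, 1% DMSO, lower incorporation means inhibition, percent relative to per-plate maximum and minimum signals.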 Conditions: human RET kinase domain; 10 μM ATP; 1 hr at 30° C. Type of assay: biochemical.

The subject of assay [1] is HeLa cervical adenocarcinoma. Nature of the assay: Cell Proliferation Inhibition Assay (14C-thymidine incorporation), HeLa.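 Further: test compound in DMSO added to cells seeded in scintillating 96-well plates, DMSO-only wells as control, uptake of methyl 14C-thymidine into new DNA counted.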 Type of assay: cell-based. Conditions: Homo sapiens, HeLa cells. (Uptake of a labelled nucleoside into DNA is a usual measure of proliferation.)
For another assay, the system named is A375 malignant melanoma. Nature of the assay: Cell Proliferation Inhibition Assay (14C-thymidine incorporation), A375.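 Further: proliferation measured by radiolabelled thymidine uptake into new DNA, counted in scintillating 96-well plates, compound-treated wells compared with DMSO-only control wells.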 Type of assay: cell-based. Conditions: Homo sapiens, A-375, A375 cells.
A further assay deals with HCT-116 colon carcinoma. Nature of the assay: Cell Proliferation Inhibition Assay (14C-thymidine incorporation), HCT-116.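 Further: proliferation measured as methyl 14C-thymidine uptake into new DNA, counted in 96-well scintillating microplates, compared with DMSO-only control wells.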 Type of assay: cell-based. Conditions: Homo sapiens.

T2 sequence (O08775 786-1343): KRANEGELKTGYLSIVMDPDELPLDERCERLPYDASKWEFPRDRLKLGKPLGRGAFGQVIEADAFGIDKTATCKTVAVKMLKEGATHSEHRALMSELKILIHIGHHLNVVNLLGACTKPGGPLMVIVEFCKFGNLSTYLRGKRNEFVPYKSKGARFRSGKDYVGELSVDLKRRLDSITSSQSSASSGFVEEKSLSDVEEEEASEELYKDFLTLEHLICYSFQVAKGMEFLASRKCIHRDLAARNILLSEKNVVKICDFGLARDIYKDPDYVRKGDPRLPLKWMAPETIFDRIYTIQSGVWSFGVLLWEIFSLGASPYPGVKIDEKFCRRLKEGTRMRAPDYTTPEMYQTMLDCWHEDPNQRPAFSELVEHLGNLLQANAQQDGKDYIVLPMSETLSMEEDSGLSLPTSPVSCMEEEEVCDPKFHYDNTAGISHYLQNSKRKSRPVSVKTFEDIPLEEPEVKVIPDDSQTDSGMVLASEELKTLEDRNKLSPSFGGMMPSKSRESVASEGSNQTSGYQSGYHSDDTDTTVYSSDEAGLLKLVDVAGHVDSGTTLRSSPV
T1 sequence (P06493 whole entry): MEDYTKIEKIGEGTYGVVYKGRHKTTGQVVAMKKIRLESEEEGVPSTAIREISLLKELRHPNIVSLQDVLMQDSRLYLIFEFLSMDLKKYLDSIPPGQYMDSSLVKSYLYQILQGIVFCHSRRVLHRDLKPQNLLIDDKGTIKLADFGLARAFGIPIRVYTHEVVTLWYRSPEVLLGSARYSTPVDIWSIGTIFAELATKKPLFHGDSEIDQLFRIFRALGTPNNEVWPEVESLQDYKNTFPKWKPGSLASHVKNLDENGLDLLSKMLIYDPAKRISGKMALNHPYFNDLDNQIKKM
T1 sequence (P14635 whole entry partner): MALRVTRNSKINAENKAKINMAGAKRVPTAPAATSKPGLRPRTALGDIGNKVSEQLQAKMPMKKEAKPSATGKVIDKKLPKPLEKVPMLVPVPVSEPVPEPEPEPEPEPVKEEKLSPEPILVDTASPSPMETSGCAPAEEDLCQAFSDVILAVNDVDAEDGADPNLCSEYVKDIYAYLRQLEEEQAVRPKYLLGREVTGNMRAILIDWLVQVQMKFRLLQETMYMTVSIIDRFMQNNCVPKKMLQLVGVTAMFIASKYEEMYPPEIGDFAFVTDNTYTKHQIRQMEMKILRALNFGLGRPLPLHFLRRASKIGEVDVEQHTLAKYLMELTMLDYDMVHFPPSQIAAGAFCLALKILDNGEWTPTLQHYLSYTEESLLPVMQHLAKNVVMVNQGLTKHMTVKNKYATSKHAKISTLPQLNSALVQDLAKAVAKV

In the case of `CN(C)CCNC(=O)c1cccc2[nH]c(-c3n[nH]c4ncc(-c5cncc6ccccc56)cc34)nc12` [Cpd 25, 2-(5-isoquinolin-4-yl-1H-pyrazolo[3,4-b]pyridin-3-yl)-1H-benzoimidazole-4-carboxylic acid (2-dimethylamino-ethyl)-amide], the IC50 – broadly, the midpoint of a concentration-inhibition curve – against CDK1 is 0.113 µM; against VEGF-R2 it was roughly 100 µM; against HER2 it was greater than 10 µM; against Aurora-A, greater than 1 µM; against RET it was greater than 100 µM; in assay [1] (HeLa) it was 3.8 µM. In addition, the IC50 worked out at 2.02 µM with A375 malignant melanoma and 1.22 µM with HCT-116 colon carcinoma (HCT-116, HCT-116 cells).

`CN(C)CCN(C)C(=O)c1cccc2[nH]c(-c3n[nH]c4ncc(-c5cncc6ccccc56)cc34)nc12` [Cpd 26, 2-(5-isoquinolin-4-yl-1H-pyrazolo[3,4-b]pyridin-3-yl)-1H-benzoimidazole-4-carboxylic acid (2-dimethylamino-ethyl)-methyl-amide]: the IC50 on CDK1 was 0.244 µM; at VEGF-R2, greater than 10 µM; against HER2 it was greater than 10 µM; against Aurora-A, 12.1 µM; at RET it was roughly 100 µM; in assay [1] (HeLa) it was 1.16 µM. Besides, the IC50 in the assay on A375 malignant melanoma is 1.21 µM; with HCT-116 colon carcinoma (HCT-116, HCT-116 cells), 0.89 µM.

For `O=C(NC1CCCC1)c1cccc2[nH]c(-c3n[nH]c4ncc(-c5cncc6ccccc56)cc34)nc12` [Cpd 27, 2-(5-isoquinolin-4-yl-1H-pyrazolo[3,4-b]pyridin-3-yl)-1H-benzoimidazole-4-carboxylic acid cyclopentylamide], the IC50 at CDK1 is 0.0317 µM; on VEGF-R2, 1.04 µM; against HER2, greater than 10 µM; against Aurora-A, greater than 1 µM; on RET, greater than 1 µM; in assay [1] (HeLa), 0.163 µM. Also, the IC50 with A375 malignant melanoma came out at 0.0752 µM; with HCT-116 colon carcinoma (HCT-116, HCT-116 cells), 0.0787 µM.

Turning to `CN1CCC(NC(=O)c2cccc3[nH]c(-c4n[nH]c5ncc(-c6cncc7ccccc67)cc45)nc23)CC1` [Cpd 28, 2-(5-isoquinolin-4-yl-1H-pyrazolo[3,4-b]pyridin-3-yl)-1H-benzoimidazole-4-carboxylic acid (1-methyl-piperidin-4-yl)-amide], the IC50 against CDK1 is 0.724 µM; on VEGF-R2, greater than 100 µM; against HER2 it was greater than 10 µM; on Aurora-A, greater than 10 µM; at RET, greater than 100 µM; in assay [1] (HeLa) it was 26.9 µM. The IC50 with A375 malignant melanoma came out at 5.62 µM; in the assay with HCT-116 colon carcinoma (HCT-116, HCT-116 cells), 4.99 µM.

Regarding `O=C(NC1CCC(O)CC1)c1cccc2[nH]c(-c3n[nH]c4ncc(-c5cncc6ccccc56)cc34)nc12` (centres unmarked) [Cpd 29, 2-(5-isoquinolin-4-yl-1H-pyrazolo[3,4-b]pyridin-3-yl)-1H-benzoimidazole-4-carboxylic acid (4-hydroxy-cyclohexyl)-amide], the IC50 was 0.0116 µM at CDK1; 0.232 µM against VEGF-R2; greater than 100 µM at HER2; roughly 1 µM against Aurora-A; roughly 1 µM against RET; 0.205 µM in assay [1] (HeLa). Moreover, the IC50 stood at 0.0697 µM with A375 malignant melanoma and 0.255 µM with HCT-116 colon carcinoma (HCT-116, HCT-116 cells).

`CC(C)OCc1cccc2[nH]c(-c3n[nH]c4ncc(-c5cncc6ccccc56)cc34)nc12` [Cpd 32, 4-[3-(4-isopropoxymethyl-1H-benzoimidazol-2-yl)-1H-pyrazolo[3,4-b]pyridin-5-yl]-isoquinoline]: the IC50 is 0.0987 µM against CDK1; roughly 0.1 µM against VEGF-R2; greater than 100 µM against HER2; greater than 1 µM against Aurora-A; greater than 100 µM on RET; 2.14 µM in assay [1]. For the same compound, the values for the IC50 in the assay on A375 malignant melanoma and with HCT-116 colon carcinoma (HCT-116 cells) were 0.905 µM and 2.89 µM, respectively.

As for `COCc1cccc2[nH]c(-c3n[nH]c4ncc(-c5ccc(S(N)(=O)=O)cc5)cc34)nc12` [Cpd 36, 4-[3-(4-methoxymethyl-1H-benzoimidazol-2-yl)-1H-pyrazolo[3,4-b]pyridin-5-yl]benzenesulfonamide], the IC50 at CDK1 is 0.546 µM; at VEGF-R2, 0.436 µM; against HER2 it was greater than 100 µM; against Aurora-A it was greater than 1 µM; at RET it was greater than 10 µM; in assay [1] (HeLa), 1.43 µM. The IC50 was found to be 0.212 µM in the assay with A375 malignant melanoma and 0.0434 µM in the assay with HCT-116 colon carcinoma (HCT-116, HCT-116 cells).

On to `COCc1cccc2[nH]c(-c3n[nH]c4ncc(-c5cn(S(=O)(=O)c6ccccc6)c6ccccc56)cc34)nc12` [Cpd 38, 5-(1-benzenesulfonyl-1H-indol-3-yl)-3-(4-methoxymethyl-1H-benzoimidazol-2-yl)-1H-pyrazolo[3,4-b]pyridine], for which the IC50 against CDK1 is greater than 10 µM; against VEGF-R2, greater than 1 µM; on HER2 it was greater than 100 µM; against Aurora-A it was roughly 100 µM; against RET it was greater than 100 µM; in assay [1] (HeLa), 1.9 µM. Also, the IC50 in the assay with A375 malignant melanoma was 0.0568 µM; in the assay with HCT-116 colon carcinoma (HCT-116, HCT-116 cells), 0.0394 µM.

`COCc1cccc2[nH]c(-c3n[nH]c4ncc(-c5c[nH]c6ccccc56)cc34)nc12` [Cpd 39, 5-(1H-indol-3-yl)-3-(4-methoxymethyl-1H-benzoimidazol-2-yl)-1H-pyrazolo[3,4-b]pyridine]: the IC50 against CDK1 is 1.21 µM; at VEGF-R2, 0.266 µM; against HER2 it was greater than 100 µM; against Aurora-A it was greater than 1 µM; against RET, greater than 100 µM; in assay [1] (HeLa) it was 1.68 µM. The IC50 in the assay on A375 malignant melanoma is 0.0358 µM; with HCT-116 colon carcinoma (HCT-116, HCT-116 cells), 0.026 µM.

For `COCc1cccc2[nH]c(-c3n[nH]c4ncc(-c5cncc(CNC(C)(C)C)c5)cc34)nc12` [Cpd 53, tert-butyl-{5-[3-(4-methoxymethyl-1H-benzoimidazol-2-yl)-1H-pyrazolo[3,4-b]pyridin-5-yl]-pyridin-3-ylmethyl}-amine], the IC50 is 0.104 µM at CDK1; 0.037 µM at VEGF-R2; greater than 10 µM on HER2; 1.52 µM on Aurora-A; greater than 1 µM at RET; 0.709 µM in assay [1] (HeLa). Moreover, the IC50 in the assay on A375 malignant melanoma came to 0.328 µM; in the assay with HCT-116 colon carcinoma (HCT-116, HCT-116 cells), 0.391 µM.

For the compound `COCc1cccc2[nH]c(-c3n[nH]c4ncc(-c5cnccc5C)cc34)nc12` [Cpd 57, 3-(4-methoxymethyl-1H-benzoimidazol-2-yl)-5-(4-methyl-pyridin-3-yl)-1H-pyrazolo[3,4-b]pyridine], the IC50 against CDK1 was 0.0663 µM; at VEGF-R2, greater than 1 µM; on HER2, greater than 100 µM; on Aurora-A, greater than 1 µM; on RET, greater than 10 µM; in assay [1] (HeLa), 0.685 µM. The IC50 in the assay with A375 malignant melanoma came out at 0.119 µM; in the assay with HCT-116 colon carcinoma (HCT-116, HCT-116 cells), 0.0687 µM.

Regarding `COCc1cccc2[nH]c(-c3n[nH]c4ncc(-c5cncc(CN6CCOCC6)c5C)cc34)nc12` [Cpd 60, 3-(4-methoxymethyl-1H-benzoimidazol-2-yl)-5-(4-methyl-5-morpholin-4-ylmethyl-pyridin-3-yl)-1H-pyrazolo[3,4-b]pyridine], the IC50 was 0.471 µM against CDK1; 3.05 µM against VEGF-R2; roughly 100 µM at HER2; roughly 1 µM on Aurora-A; greater than 10 µM at RET; 1.6 µM in assay [1] (HeLa). The IC50 in the assay with A375 malignant melanoma amounted to 0.0111 µM; in the assay on HCT-116 colon carcinoma (HCT-116, HCT-116 cells), 0.0395 µM.

For `COCc1cccc2[nH]c(-c3n[nH]c4ncc(-c5cncc(CN(C)C)c5C)cc34)nc12` [Cpd 61, {5-[3-(4-methoxymethyl-1H-benzoimidazol-2-yl)-1H-pyrazolo[3,4-b]pyridin-5-yl]-4-methyl-pyridin-3-ylmethyl}-dimethyl-amine], the IC50 was 0.283 µM at CDK1; 4.11 µM at VEGF-R2; greater than 10 µM on HER2; 0.321 µM against Aurora-A; greater than 10 µM at RET; 1.83 µM in assay [1] (HeLa). Further, the IC50 with A375 malignant melanoma amounted to 0.219 µM; with HCT-116 colon carcinoma (HCT-116, HCT-116 cells), 0.0992 µM.

The values above are taken from patent publication US7541367B2, “3-benzoimidazolyl-pyrazolopyridines useful in treating kinase disorders” (Janssen Pharmaceutica, N.V., priority 2005, dated 2009).
